In BindingDB's records for doi:10.1021/acs.jmedchem.6b01711 (University of Strathclyde, 2017) one finds IC50 data, which are given here for three compounds.

The nature of assay [1]: Antagonist activity at integrin alpha2b beta3 receptor in citrated human platelet-rich plasma assessed as inhibition of ADP-induced platelets aggregation preincubated for 15 mins followed by ADP addition measured for 8 mins by aggregometric analysis.
Assay [2] can be described thus: Inhibition of alpha5 beta1 integrin (unknown origin) by cell migration assay.
A short description of assay [3]: Inhibition of alpha5 beta1 integrin (unknown origin) by cell proliferation assay.
Assay [4] is described as follows: Antagonist activity at integrin alpha2b beta3 receptor in citrated human platelet-rich plasma assessed as inhibition of ADP-induced platelet aggregation.

By IC50 is commonly meant the midpoint of a concentration-inhibition curve.

With `CCc1nn2c(=O)cc(N3CCNCC3)nc2s1`, the IC50 in assay [1] amounted to 9.7 µM.
Take `O=c1c(C2NCCc3c2[nH]c2ccccc32)c(O)[nH]c(=S)n1Cc1ccc(F)cc1` (centres undefined): the figures for the IC50 in assay [2] and in assay [3] were 15.5 µM and 20.5 µM, respectively.
As to `N=C(N)c1ccc2cc(OC(=O)c3ccc(N=C(N)N)cc3)ccc2c1` [4-Guanidino-benzoic acid 6-carbamimidoyl-naphthalen-2-yl ester(FUT-175)], in assay [4], the IC50 was 12 µM.
